According to patent US20220281831A1, “FUSED-GLUTARIMIDE CRBN LIGANDS AND USES THEREOF” (Kymera Therapeutics, Inc., priority 2019, published 2022):

What follows are compounds tested against His-tagged CRBN-DDB1 complex (Homo sapiens, UniProt Q96SW2) (assay: Time-Resolved Fluorescence Resonance Energy Transfer (TR-FRET / HTRF) CRBN binding assay, displacement of Cy5-labeled thalidomide). Conditions: His-CRBN-DDB1, Cy5-thalidomide 8 nM, 1 hour room temperature.
Method: Time-Resolved Fluorescence Resonance Energy Transfer (TR-FRET) Assay.
Equal volumes of His-tagged CRBN-DDB1 complex (56 nM) was mixed with Eu-cryptate labeled Anti-6HIS-monoclonal antibody (50× dilution from the commercial stock solution, Vender: Cisbio, Cat. #61HI2KLA) in a final buffer containing 20 mM HEPES pH 7.0, 150 mM NaCl, 0.005% Tween-20. […] The mixture were incubated at room temperature for 1 hour. FRET signals were measured on an EnVision plate reader (Perkin Elmer) by exciting at 340 nm and recording emission at both 615 nm as no FRET control and 665 nm as the FRET signals with a 60 microsecond delay. FRET efficiency was calculated as the ratio of fluorescent signals at […]. Quantitative loss of FRET efficiency as a function of compound concentrations was fitted by a four-parameter Logistic Function using GraphPad Prism 7.0 and the IC50 values were reported for each compound.
The compound numbers correspond to the compound numbers in Table 1.

Sequence of His-tagged CRBN-DDB1 complex (Q96SW2 whole entry): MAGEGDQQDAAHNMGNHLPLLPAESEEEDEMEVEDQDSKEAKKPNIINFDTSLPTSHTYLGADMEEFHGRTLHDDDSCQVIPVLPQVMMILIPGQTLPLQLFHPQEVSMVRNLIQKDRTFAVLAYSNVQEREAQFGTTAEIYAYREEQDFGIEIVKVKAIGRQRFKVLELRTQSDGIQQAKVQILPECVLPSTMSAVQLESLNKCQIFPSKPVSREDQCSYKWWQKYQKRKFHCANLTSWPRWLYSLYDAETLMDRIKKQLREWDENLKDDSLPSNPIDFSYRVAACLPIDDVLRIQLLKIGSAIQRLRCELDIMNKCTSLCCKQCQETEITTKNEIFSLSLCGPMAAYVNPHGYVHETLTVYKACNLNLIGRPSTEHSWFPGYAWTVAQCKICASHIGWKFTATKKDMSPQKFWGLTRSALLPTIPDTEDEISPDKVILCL
Sequence of His-tagged CRBN-DDB1 complex (Q16531 whole entry partner): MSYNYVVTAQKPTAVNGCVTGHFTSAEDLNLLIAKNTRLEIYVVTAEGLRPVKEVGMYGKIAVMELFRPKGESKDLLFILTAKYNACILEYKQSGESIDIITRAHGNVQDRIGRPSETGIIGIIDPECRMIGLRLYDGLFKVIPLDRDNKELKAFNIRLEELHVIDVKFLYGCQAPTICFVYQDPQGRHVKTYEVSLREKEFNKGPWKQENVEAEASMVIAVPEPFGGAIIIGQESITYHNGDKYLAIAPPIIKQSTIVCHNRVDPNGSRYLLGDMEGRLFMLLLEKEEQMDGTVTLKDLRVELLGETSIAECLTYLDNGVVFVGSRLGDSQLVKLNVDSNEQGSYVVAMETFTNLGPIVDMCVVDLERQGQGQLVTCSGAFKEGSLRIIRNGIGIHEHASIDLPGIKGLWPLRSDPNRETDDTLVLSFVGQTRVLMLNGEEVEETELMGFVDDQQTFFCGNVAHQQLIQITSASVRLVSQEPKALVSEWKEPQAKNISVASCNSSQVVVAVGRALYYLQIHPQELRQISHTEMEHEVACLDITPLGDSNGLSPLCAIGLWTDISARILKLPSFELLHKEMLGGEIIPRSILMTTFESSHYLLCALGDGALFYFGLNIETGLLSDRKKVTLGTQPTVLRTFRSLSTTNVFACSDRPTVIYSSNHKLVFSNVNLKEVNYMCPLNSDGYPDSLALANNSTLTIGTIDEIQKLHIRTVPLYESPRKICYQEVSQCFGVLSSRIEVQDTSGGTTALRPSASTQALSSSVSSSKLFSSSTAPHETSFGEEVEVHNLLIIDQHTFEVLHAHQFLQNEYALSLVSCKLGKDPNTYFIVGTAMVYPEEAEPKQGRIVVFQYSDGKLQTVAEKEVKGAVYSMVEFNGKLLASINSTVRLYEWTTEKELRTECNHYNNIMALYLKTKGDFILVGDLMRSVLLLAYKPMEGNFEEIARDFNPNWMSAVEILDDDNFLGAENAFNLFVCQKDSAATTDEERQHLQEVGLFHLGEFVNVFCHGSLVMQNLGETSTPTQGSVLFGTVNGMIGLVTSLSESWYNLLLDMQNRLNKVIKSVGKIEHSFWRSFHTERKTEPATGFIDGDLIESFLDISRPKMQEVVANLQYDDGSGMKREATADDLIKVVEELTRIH

`N#Cc1cccc(N2C[C@@H]3C(=O)NC(=O)[C@@H]3C2)c1` [Compound I-179] and `COCc1cccc(N2C[C@@H]3C(=O)NC(=O)[C@@H]3C2)c1` [Compound I-181] cannot be ordered by IC50: over 100 µM for the first, over 100 µM for the second.

`CS(=O)(=O)c1cccc(N2C[C@@H]3C(=O)NC(=O)[C@@H]3C2)c1` [Compound I-180] and `Cc1cccc(C(=O)N2C[C@@H]3C(=O)NC(=O)[C@@H]3C2)c1` [Compound I-323] cannot be ordered by IC50: over 100 µM for the first, over 100 µM for the second.

`COc1ccccc1C(=O)N1C[C@@H]2C(=O)NC(=O)[C@@H]2C1` [Compound I-182] and `O=C1NC(=O)[C@@H]2CN(C(=O)c3n[nH]c4ccccc34)C[C@H]12` [Compound I-302] cannot be ordered by IC50: over 100 µM for the first, over 100 µM for the second.

`CN1C(=O)C2(CC(=O)NC2=O)c2cc(N)ccc21` (stereo not shown) [Compound I-183] and `CN1C(=O)C2(CC(=O)NC2=O)c2ccccc21` (stereo not shown) [Compound I-184] cannot be ordered by IC50: over 100 µM for the first, over 100 µM for the second.

`Cn1c(=O)[nH]c2cccc(Br)c2c1=O` [Compound I-190] and `Cn1c(=O)c2c(Br)cccc2n(C)c1=O` [Compound I-192] cannot be ordered by IC50: over 100 µM for the first, over 100 µM for the second.

`Cn1c(=O)c2cc(Br)ccc2n(C)c1=O` [Compound I-191] and `CC(=O)Nc1ccc2c(c1)C(=O)NC2=O` [Compound I-326] cannot be ordered by IC50: over 100 µM for the first, over 100 µM for the second.

`O=C1CC2(Nc3ccccc3C2=O)C(=O)N1` (stereo not shown) [Compound I-195, 1H-spiro[indole-2,3′-pyrrolidine]-2′,3,5′-trione] and `O=C1CC2(CCN(Cc3c[nH]c4ccccc34)CC2)CC(=O)N1` [Compound I-342] cannot be ordered by IC50: over 100 µM for the first, over 100 µM for the second.

Compared with `O=C1CCc2cccc(Oc3ccccc3)c2C(=O)N1` [Compound I-209, 9-Phenoxy-4,5-dihydro-2H-2-benzazepine-1,3-dione], `Cc1ccc(Oc2ccccc2)c2c1CC(=O)NC2=O` [Compound I-279] is lower in IC50: over 100 µM for the first, 30 to 100 µM for the second. The second is the more potent here.

`O=C1Cc2cccc(Oc3ccccc3C(F)(F)F)c2C(=O)N1` [Compound I-210, 8-[2-(Trifluoromethyl)phenoxy]-2,4-dihydroisoquinoline-1,3-dione] and `CC(C)c1ccccc1Oc1cccc2c1C(=O)NC(=O)C2` [Compound I-211, 8-(2-Isopropylphenoxy)-2,4-dihydroisoquinoline-1,3-dione] cannot be ordered by IC50: under 10 µM for the first, under 10 µM for the second.

First: CC(C)(C)OC(=O)NCC#Cc1ccccc1Oc1cccc2c1C(=O)NC(=O)C2 [Compound I-212]
Second: CC(C)(C)OC(=O)NCCCCCC#Cc1ccccc1Oc1cccc2c1C(=O)NC(=O)C2=O [Compound I-242]
The IC50 of the first is higher: 30 to 100 µM for the first, under 10 µM for the second. The second is the more potent here.

Compared with `CN(Cc1ccccc1)C(=O)c1cccc2c1C(=O)NC(=O)C2` [Compound I-280], `O=C1Cc2cccc(NCc3ccccc3)c2C(=O)N1` [Compound I-281] is lower in IC50: 30 to 100 µM for the first, under 10 µM for the second. The second is the more potent here.

`CC(C1CC1)N1C[C@@H]2C(=O)NC(=O)[C@@H]2C1` (stereo partly shown) [Compound I-282] and `O=C1NC(=O)[C@@H]2CN(C(=O)C3CC3)C[C@H]12` [Compound I-306] cannot be ordered by IC50: over 100 µM for the first, over 100 µM for the second.

`O=C1NC(=O)c2cc(NC(=O)N3CCCCC3)ccc21` [Compound I-283] and `Cc1cc(C(=O)N2CCC3(CC2)CC(=O)NC(=O)C3)ccn1` [Compound I-340] cannot be ordered by IC50: over 100 µM for the first, over 100 µM for the second.

`CC(=O)N1C[C@@H]2C(=O)NC(=O)[C@@H]2C1` [Compound I-284] and `Cc1ncoc1C(=O)N1C[C@@H]2C(=O)NC(=O)[C@@H]2C1` [Compound I-309] cannot be ordered by IC50: over 100 µM for the first, over 100 µM for the second.

`O=C1NC(=O)[C@@H]2CN(C(=O)c3ccc(Cl)cc3)C[C@H]12` [Compound I-286] and `O=C1NC(=O)[C@@H]2CN(C(=O)c3ccc(O)cc3)C[C@H]12` [Compound I-291] cannot be ordered by IC50: over 100 µM for the first, over 100 µM for the second.

`O=C1NC(=O)[C@@H]2CN(Cc3cccc(O)c3)C[C@H]12` [Compound I-287] and `O=C1NC(=O)[C@@H]2CN(Cc3ccccc3)C[C@H]12` [Compound I-328] cannot be ordered by IC50: over 100 µM for the first, over 100 µM for the second.

`O=C1NC(=O)[C@@H]2CN(Cc3c[nH]c4ccccc34)C[C@H]12` [Compound I-288] and `O=C1NC(=O)[C@@H]2CN(Cc3cccc4ccccc34)C[C@H]12` [Compound I-325] cannot be ordered by IC50: over 100 µM for the first, over 100 µM for the second.

`O=C1NC(=O)[C@@H]2CN(C3Cc4ccccc4C3)C[C@H]12` [Compound I-289] and `O=C1NC(=O)[C@@H]2CN(C3CCN(Cc4ccccc4)CC3)C[C@H]12` [Compound I-296] cannot be ordered by IC50: over 100 µM for the first, over 100 µM for the second.

`COc1ccc(CN2C[C@@H]3C(=O)NC(=O)[C@@H]3C2)cn1` [Compound I-293] and `COc1ccc(C(=O)N2C[C@@H]3C(=O)NC(=O)[C@@H]3C2)cn1` [Compound I-324] cannot be ordered by IC50: over 100 µM for the first, over 100 µM for the second.

`CN(C)c1ccc(CN2C[C@@H]3C(=O)NC(=O)[C@@H]3C2)cc1` [Compound I-294] and `Cc1ccc(CN2C[C@@H]3C(=O)NC(=O)[C@@H]3C2)cc1` [Compound I-299] cannot be ordered by IC50: over 100 µM for the first, over 100 µM for the second.

First: O=C1NC(=O)[C@@H]2CN(Cc3ccc([N+](=O)[O-])s3)C[C@H]12 [Compound I-295]
Second: Cc1ccc(CN2C[C@@H]3C(=O)NC(=O)[C@@H]3C2)o1 [Compound I-314]
The IC50 of the first is lower: 30 to 100 µM for the first, over 100 µM for the second. The first is the more potent here.

`O=C1NC(=O)[C@@H]2CN(Cc3c[nH]cn3)C[C@H]12` [Compound I-297] and `O=C1NC(=O)[C@@H]2CN(Cc3ccc[nH]3)C[C@H]12` [Compound I-300] cannot be ordered by IC50: over 100 µM for the first, over 100 µM for the second.

`O=C1NC(=O)[C@@H]2CN(CCc3ccccc3)C[C@H]12` [Compound I-298] and `O=C1NC(=O)[C@@H]2CN(C(=O)COCc3ccccc3)C[C@H]12` [Compound I-303] cannot be ordered by IC50: over 100 µM for the first, over 100 µM for the second.

`O=C1NC(=O)[C@@H]2CN(C(=O)c3ccnc(Cl)c3)C[C@H]12` [Compound I-301] and `Cc1cc(C(=O)N2C[C@@H]3C(=O)NC(=O)[C@@H]3C2)ccn1` [Compound I-310] cannot be ordered by IC50: over 100 µM for the first, over 100 µM for the second.

`O=C1NC(=O)[C@@H]2CN(C(=O)c3cccnn3)C[C@H]12` [Compound I-304] and `O=C1NC(=O)[C@@H]2CN(C(=O)c3cnccn3)C[C@H]12` [Compound I-307] cannot be ordered by IC50: over 100 µM for the first, over 100 µM for the second.

`Cc1cccc(CC(=O)N2C[C@@H]3C(=O)NC(=O)[C@@H]3C2)c1` [Compound I-305] and `O=C1NC(=O)[C@@H]2CN(C(=O)c3ccco3)C[C@H]12` [Compound I-308] cannot be ordered by IC50: over 100 µM for the first, over 100 µM for the second.

Compared with `O=C1NC(=O)[C@@H]2CN(Cc3ccc(Oc4ccccc4)cc3)C[C@H]12` [Compound I-311], `CCCCOc1ccc(CN2C[C@@H]3C(=O)NC(=O)[C@@H]3C2)cc1` [Compound I-312] is higher in IC50: 30 to 100 µM for the first, over 100 µM for the second.

`O=C1NC(=O)[C@@H]2CN(Cc3ccc(F)c4ccccc34)C[C@H]12` [Compound I-313] and `O=C1NC(=O)[C@@H]2CN(Cc3cccc4cccnc34)C[C@H]12` [Compound I-315] cannot be ordered by IC50: over 100 µM for the first, over 100 µM for the second.

`O=C1NC(=O)[C@@H]2CN(Cc3cc4ccccc4o3)C[C@H]12` [Compound I-316] and `O=C1NC(=O)[C@@H]2CN(C(=O)c3ccc4ccccc4c3)C[C@H]12` [Compound I-317] fall in the same range of IC50: 30 to 100 µM for the first, 30 to 100 µM for the second.

`O=C1NC(=O)[C@@H]2CN(C(=O)c3cncs3)C[C@H]12` [Compound I-318] and `O=C1NC(=O)[C@@H]2CN(C(=O)c3cccs3)C[C@H]12` [Compound I-321] cannot be ordered by IC50: over 100 µM for the first, over 100 µM for the second.

`O=C1NC(=O)[C@@H]2CN(C(=O)c3ccc4ccoc4c3)C[C@H]12` [Compound I-320] and `O=C1NC(=O)[C@@H]2CN(C(=O)c3ccc(F)cc3)C[C@H]12` [Compound I-322] cannot be ordered by IC50: over 100 µM for the first, over 100 µM for the second.

`O=C1NC(=O)[C@@H]2CNC[C@H]12` [Compound I-327] and `O=C1CC2(CCN(Cc3ccc[nH]3)CC2)CC(=O)N1` [Compound I-337] cannot be ordered by IC50: over 100 µM for the first, over 100 µM for the second.

`O=C1CC2(CCN(Cc3cccc4cccnc34)CC2)CC(=O)N1` [Compound I-329] and `O=C1CC2(CCN(Cc3cccc4ccccc34)CC2)CC(=O)N1` [Compound I-331] cannot be ordered by IC50: over 100 µM for the first, over 100 µM for the second.

First: O=C1CC2(CCN(Cc3ccc([N+](=O)[O-])s3)CC2)CC(=O)N1 [Compound I-330]
Second: Cc1ccc(CN2CCC3(CC2)CC(=O)NC(=O)C3)cc1 [Compound I-338]
The IC50 of the first is lower: 30 to 100 µM for the first, over 100 µM for the second.

`CN(C)c1ccc(CN2CCC3(CC2)CC(=O)NC(=O)C3)cc1` [Compound I-332] and `O=C1CC2(CCN(Cc3ccc(Cl)cc3)CC2)CC(=O)N1` [Compound I-343] cannot be ordered by IC50: over 100 µM for the first, over 100 µM for the second.

`O=C1CC2(CCN(Cc3cc4ccccc4o3)CC2)CC(=O)N1` [Compound I-333] and `O=C1CC2(CCN(Cc3ccc(F)c4ccccc34)CC2)CC(=O)N1` [Compound I-336] cannot be ordered by IC50: over 100 µM for the first, over 100 µM for the second.

`O=C1CC2(CCN(C(=O)COCc3ccccc3)CC2)CC(=O)N1` [Compound I-334] and `O=C1CC2(CCN(C(=O)c3ccn[nH]3)CC2)CC(=O)N1` [Compound I-341] cannot be ordered by IC50: over 100 µM for the first, over 100 µM for the second.

`CCCCOc1ccc(CN2CCC3(CC2)CC(=O)NC(=O)C3)cc1` [Compound I-335] and `O=C1CC2(CCN(Cc3ccc(Oc4ccccc4)cc3)CC2)CC(=O)N1` [Compound I-344] cannot be ordered by IC50: over 100 µM for the first, over 100 µM for the second.

`O=C1CC2(CCN(Cc3c[nH]cn3)CC2)CC(=O)N1` [Compound I-339] and `COc1ccc(CN2CCC3(CC2)CC(=O)NC(=O)C3)cn1` [Compound I-345] cannot be ordered by IC50: over 100 µM for the first, over 100 µM for the second.

`O=C1CC2(CCN(Cc3ccc(-c4ccccc4)cc3)CC2)CC(=O)N1` [Compound I-346] gave an IC50 of over 100 µM.
